We go through two molecules from ChEMBL document CHEMBL1124790, “Angiotensin converting enzyme inhibitors. 10. Aryl sulfonamide substituted N-[1-carboxy-3-phenylpropyl]-L-alanyl-L-proline derivatives as novel antihypertensives” (J Med Chem, 1990).

Molecules are shown by their SMILES.

For assay [1], the target named is T1, Angiotensin-converting enzyme (Oryctolagus cuniculus) (UniProt P12822).
T1 sequence (whole entry): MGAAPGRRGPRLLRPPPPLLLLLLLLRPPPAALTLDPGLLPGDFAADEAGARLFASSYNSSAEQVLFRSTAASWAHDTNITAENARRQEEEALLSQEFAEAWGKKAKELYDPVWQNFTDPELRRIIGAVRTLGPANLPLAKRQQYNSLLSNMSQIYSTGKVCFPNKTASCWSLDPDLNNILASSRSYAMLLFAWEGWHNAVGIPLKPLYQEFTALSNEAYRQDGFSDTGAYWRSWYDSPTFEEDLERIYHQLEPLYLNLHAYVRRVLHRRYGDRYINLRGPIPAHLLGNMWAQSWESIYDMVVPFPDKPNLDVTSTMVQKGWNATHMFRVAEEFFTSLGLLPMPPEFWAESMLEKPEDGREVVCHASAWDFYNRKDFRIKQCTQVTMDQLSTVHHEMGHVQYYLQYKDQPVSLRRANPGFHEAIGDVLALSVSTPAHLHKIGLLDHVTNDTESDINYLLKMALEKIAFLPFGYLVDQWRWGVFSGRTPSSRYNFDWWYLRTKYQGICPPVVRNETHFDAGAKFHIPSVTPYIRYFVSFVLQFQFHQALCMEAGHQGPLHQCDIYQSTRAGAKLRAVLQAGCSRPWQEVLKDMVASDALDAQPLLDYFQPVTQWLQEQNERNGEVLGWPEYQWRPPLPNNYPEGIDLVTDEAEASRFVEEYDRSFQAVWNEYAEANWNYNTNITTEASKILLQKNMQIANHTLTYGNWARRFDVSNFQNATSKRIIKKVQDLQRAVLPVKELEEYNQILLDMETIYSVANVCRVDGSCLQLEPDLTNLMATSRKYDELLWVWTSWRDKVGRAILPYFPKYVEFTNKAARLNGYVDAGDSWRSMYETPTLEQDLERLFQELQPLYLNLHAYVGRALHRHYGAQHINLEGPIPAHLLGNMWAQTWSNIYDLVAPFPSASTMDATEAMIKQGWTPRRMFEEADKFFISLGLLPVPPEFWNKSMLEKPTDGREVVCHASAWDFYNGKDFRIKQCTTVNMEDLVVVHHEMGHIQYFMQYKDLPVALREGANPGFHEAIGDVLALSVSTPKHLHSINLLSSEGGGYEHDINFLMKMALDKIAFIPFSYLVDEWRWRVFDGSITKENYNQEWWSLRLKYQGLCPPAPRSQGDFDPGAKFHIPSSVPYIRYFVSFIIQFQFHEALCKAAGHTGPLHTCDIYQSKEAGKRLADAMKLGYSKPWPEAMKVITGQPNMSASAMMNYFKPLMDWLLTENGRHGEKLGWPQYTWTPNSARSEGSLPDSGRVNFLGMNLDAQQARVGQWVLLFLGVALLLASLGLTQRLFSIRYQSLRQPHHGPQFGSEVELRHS
Put plainly: Time to inhibit maximum angiotensin I converting enzyme in rabbit lung. Type of assay: functional, tissue-based.

Assay [2] deals with T1, Angiotensin-converting enzyme (Oryctolagus cuniculus). Put plainly: Time during which angiotensin I converting enzyme inhibition is greater than or equa to 30% in rabbit lung. Type of assay: functional, tissue-based.
Assay [3] concerns the target T2, Angiotensin-converting enzyme (Oryctolagus cuniculus, UniProt P12822).
T2 sequence (P12822 whole entry): T1 sequence (whole entry)
Put plainly: In vitro inhibition of angiotensin I converting enzyme (ACE) in rabbit lung. Type of assay: tissue-based.

For assay [4], the target named is T1, Angiotensin-converting enzyme (Oryctolagus cuniculus). Put plainly: In vivo inhibition of angiotensin I converting enzyme (ACE) in rabbit lung after (iv) administration of a dose of 10(mg/kg). Type of assay: organism-based.
Assay [5] concerns Rattus norvegicus. Nature of the assay: Percent change in K+ in fasted rats at the dose of 100 mg/kg (iv), 0-5 h. Type of assay: functional.
The test system of assay [6] is Rattus norvegicus. Put plainly: Percent change in K+ in fasted rats at the dose of 100 mg/kg (iv), 5-24 h. Type of assay: functional.
In assay [7] the test system is Rattus norvegicus. Put plainly: Percent change in Na+ in fasted rats at the dose of 100 mg/kg (iv), 0-5 h. Type of assay: functional.
Assay [8] deals with Rattus norvegicus. Put plainly: Percent change in Na+in fasted rats at the dose of 100 mg/kg (iv), 5-24 h. Type of assay: functional.
Assay [9] concerns Rattus norvegicus. Put plainly: Percent change in urinary volume in fasted rats at the dose of 100 mg/kg (iv), 0-5 h. Type of assay: functional, Urine.
The subject of assay [10] is Rattus norvegicus. Nature of the assay: Percent change in urinary volume in fasted rats at the dose of 100 mg/kg (iv), 5-24 h. Type of assay: functional, Urine.
The target in assay [11] is T2, Angiotensin-converting enzyme. Nature of the assay: In vitro inhibition of angiotensin I converting enzyme(ACE) in rabbit lung. Type of assay: tissue-based.
The target of assay [12] is T1, Angiotensin-converting enzyme (Oryctolagus cuniculus). Nature of the assay: In vivo inhibition of angiotensin I converting enzyme (ACE) in rabbit lung after (po) administration of a dose of 10(mg/kg). Type of assay: organism-based.
Assay [13] concerns Rattus norvegicus. Put plainly: Percent change in K+ in fasted rats at the dose of 82 mg/kg (iv), 0-5 h. Type of assay: functional.
The subject of assay [14] is Rattus norvegicus. Nature of the assay: Antihypertensive activity was determined in spontaneously hypertensive rat at a dose of 100 mg/kg(ip) administration. Type of assay: functional.
The test system of assay [15] is Rattus norvegicus. Nature of the assay: Percent change in urinary volume in fasted rats at the dose of 82 mg/kg (iv), 0-5 h. Type of assay: functional, Urine.
Assay [16] relates to Rattus norvegicus. Nature of the assay: Time duration was determined for the actioni (determination of MAP in case of oral administration) in rat. Type of assay: functional.
Assay [17] deals with Rattus norvegicus. Nature of the assay: Time duration was determined for the actioni (determination of MAP in ip administration) in rat. Type of assay: functional.
For assay [18], the species on record is Rattus norvegicus. Put plainly: The onset hour was determined in rat. Type of assay: functional.
The test system of assay [19] is Rattus norvegicus. Nature of the assay: Percent change in Na+ in fasted rats at the dose of 82 mg/kg (iv), 0-5 h. Type of assay: functional.
Assay [20] has as its system Rattus norvegicus. Nature of the assay: Antihypertensive activity was determined in spontaneously hypertensive rat at a dose of 100 mg/kg(po) administration. Type of assay: functional.
Assay [21] has as its system Angiotensin-converting enzyme (Sus scrofa). Put plainly: Time to inhibit maximum angiotensin I converting enzyme in Hog plasma.
Assay [22] shares this test system. Nature of the assay: Time during which angiotensin I converting enzyme inhibition is greater than or equal to 30% in Hog plasma.

On to `C[C@H](N[C@@H](CCc1ccccc1)C(=O)O)C(=O)N1C[C@@H](NS(=O)(=O)c2cc(S(N)(=O)=O)c(N)cc2Cl)C[C@H]1C(=O)O`, for which, in assay [1], the Time to max. inhibition was found to be 0.3 h. Further, the Duration in assay [2] stood at 3.7 h. For the same molecule, the IC50 in assay [3] amounted to 6.5 nM. The inhibition in [4] was found to be 76%. Besides, the Change in the assay on Rattus norvegicus [5] was 0%; with Rattus norvegicus [6], 0%; in the assay on Rattus norvegicus [7], -57%; in the assay with Rattus norvegicus [8], 38%; with Rattus norvegicus [9] it was -49%; with Rattus norvegicus [10], 60%.
`C[C@H](N[C@@H](CCc1ccccc1)C(=O)O)C(=O)N1C[C@H](OCCC2Nc3cc(Cl)c(S(N)(=O)=O)cc3S(=O)(=O)N2)C[C@H]1C(=O)O` (stereo not given in full): the figures for the Time to max. inhibition in assay [1] and in assay [21] were 0.3 h and 2.6 h, respectively. Besides, the Duration in assay [2] is 3.7 h; in the assay on Rattus norvegicus [16] it was 19 h; in the assay on Rattus norvegicus [17], >14 h; in [22], 1.6 h. In assay [11], this molecule returned an IC50 of 22 nM. Moreover, the inhibition in assay [4] was found to be 100%; in assay [12], 38%. Besides, the Change with Rattus norvegicus [13] is given as 80%; with Rattus norvegicus [15], 0%; in the assay with Rattus norvegicus [19], 60%. Moreover, the “Change in MAP” value in the assay on Rattus norvegicus [14] is recorded as -35%; in the assay with Rattus norvegicus [20], -19%. In the assay listed under Rattus norvegicus [18], this molecule displayed an Onset of 0.25 h.

As usually defined, the IC50 is the point on the concentration scale where inhibition reaches its midpoint. A low value points to greater potency. As a reminder, the inhibition is the percentage by which the read-out fell short of the control.
